Molecular target: T1, Tumor necrosis factor (Mus musculus) (UniProt P06804)
T1 sequence (whole entry): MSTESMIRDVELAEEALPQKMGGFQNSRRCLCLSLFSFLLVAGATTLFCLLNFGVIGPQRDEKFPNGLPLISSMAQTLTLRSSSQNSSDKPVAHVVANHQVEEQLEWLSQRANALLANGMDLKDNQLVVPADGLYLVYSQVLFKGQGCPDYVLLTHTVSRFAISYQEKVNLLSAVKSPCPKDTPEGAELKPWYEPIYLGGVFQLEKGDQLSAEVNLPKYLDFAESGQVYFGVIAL
Experiment: Inhibition of TNFalpha in LPS-stimulated mouse RAW264.7 cells at 10 uM after 2 hrs treated after 14 hrs of LPS challenge by FACS analysis
Format: cell-based

Compound | inhibition
NC(=O)c1cc(-c2csc(C3COc4ccccc4O3)n2)ccc1OCc1ccccc1 (stereo unspecified) | 52.6%
O=C1NC(=O)N(c2ccccc2)C(=O)/C1=C\c1ccccc1OCc1ccccc1Cl | 47.9%
O=c1cc(-c2ccccc2)oc2cc(O)c(O)c(O)c12 | 71.3%
Cc1cccc(N2C(=O)NC(=O)/C(=C/c3ccc(-c4ccc(C(=O)O)c(Cl)c4)o3)C2=O)c1 | 64%
c1ccc(-n2ncc3c(NCCN4CCCCC4)ncnc32)cc1 | 45.8%
O=C1NC(=O)N(c2ccc3c(c2)OCO3)C(=O)/C1=C\c1cn(Cc2ccccc2Cl)c2ccccc12 | 54.6%

Reference: ChEMBL document CHEMBL1268826, “Discovery of the inhibitors of tumor necrosis factor alpha with structure-based virtual screening” (Bioorg Med Chem Lett, 2010)
